Reference: PubChem BioAssay AID2060884 (Molecular Pharmacology Branch, DTP, NCI, 2025)

Test system: NCI-H929 complex spheroids, viability % test/control
Assay: Anticancer human tumor NCI-H929 cell line growth inhibition [RAS];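 further: compound exposure lasted seven days before viability was read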;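 on viability, T/C: 100% = DMSO vehicle control viability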
Details: for IC50: curve of first compound; for viability, T/C: stronger effect = lower value
Procedure, shortened: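 Multi-cell-type spheroids: tumor cells plus HUVEC endothelial cells and mesenchymal stem cells. RAS-pathway inhibitors were combined with targeted agents, each dosed in half-log steps down from clinical Cmax, or from 10 microM when Cmax was unknown.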

[1] = second compound 0.000949 µM, first compound 0.00316 µM
[2] = second compound 0.000949 µM, first compound 0.01 µM
[3] = second compound 0.000949 µM, first compound 0.0316 µM
[4] = second compound 0.000949 µM, first compound 0.1 µM
[5] = second compound 0.000949 µM, first compound 0.316 µM
[6] = second compound 0.000949 µM, first compound 1 µM
[7] = second compound 0.003 µM, first compound 0.00316 µM
[8] = second compound 0.003 µM, first compound 0.01 µM
[9] = second compound 0.003 µM, first compound 0.0316 µM
[10] = second compound 0.003 µM, first compound 0.1 µM
[11] = second compound 0.003 µM, first compound 0.316 µM
[12] = second compound 0.003 µM, first compound 1 µM
[13] = second compound 0.00949 µM, first compound 0.00316 µM
[14] = second compound 0.00949 µM, first compound 0.01 µM
[15] = second compound 0.00949 µM, first compound 0.0316 µM
[16] = second compound 0.00949 µM, first compound 0.1 µM
[17] = second compound 0.00949 µM, first compound 0.316 µM
[18] = second compound 0.00949 µM, first compound 1 µM
[19] = second compound 0.03 µM, first compound 0.00316 µM
[20] = second compound 0.03 µM, first compound 0.01 µM
[21] = second compound 0.03 µM, first compound 0.0316 µM
[22] = second compound 0.03 µM, first compound 0.1 µM
[23] = second compound 0.03 µM, first compound 0.316 µM
[24] = second compound 0.03 µM, first compound 1 µM
[25] = second compound 0.0949 µM, first compound 0.00316 µM
[26] = second compound 0.0949 µM, first compound 0.01 µM
[27] = second compound 0.0949 µM, first compound 0.0316 µM
[28] = second compound 0.0949 µM, first compound 0.1 µM
[29] = second compound 0.0949 µM, first compound 0.316 µM
[30] = second compound 0.0949 µM, first compound 1 µM
[31] = second compound 0.3 µM, first compound 0.00316 µM
[32] = second compound 0.3 µM, first compound 0.01 µM
[33] = second compound 0.3 µM, first compound 0.0316 µM
[34] = second compound 0.3 µM, first compound 0.1 µM
[35] = second compound 0.3 µM, first compound 0.316 µM
[36] = second compound 0.3 µM, first compound 1 µM

Structure (SMILES): C=CC(=O)N1CCN(c2nc(OCC3CCCN3C)nc3c(F)c(-c4nc(N)cc(C)c4C(F)(F)F)c(Cl)cc23)C(C)C1 (stereo unspecified) + CCn1c(-c2cc(N3CCN(C)CC3)cnc2C(C)OC)c2c3cc(ccc31)-c1csc(n1)CC(NC(=O)C1CC1C)C(=O)N1CCCC(N1)C(=O)OCC(C)(C)C2
- IC50 (second compound 0.000949 µM): > 1000 nM
- IC50 (second compound 0.003 µM): > 1000 nM
- IC50 (second compound 0.00949 µM): > 1000 nM
- IC50 (second compound 0.03 µM): > 1000 nM
- IC50 (second compound 0.0949 µM): < 3.16 nM
- IC50 (second compound 0.3 µM): < 3.16 nM
- viability, T/C [1]: 98.6%
- viability, T/C [2]: 92.4%
- viability, T/C [3]: 102%
- viability, T/C [4]: 96.4%
- viability, T/C [5]: 101%
- viability, T/C [6]: 107%
- viability, T/C [7]: 89.5%
- viability, T/C [8]: 97.1%
- viability, T/C [9]: 97.5%
- viability, T/C [10]: 96.6%
- viability, T/C [11]: 101%
- viability, T/C [12]: 97.2%
- viability, T/C [13]: 109%
- viability, T/C [14]: 115%
- viability, T/C [15]: 116%
- viability, T/C [16]: 114%
- viability, T/C [17]: 114%
- viability, T/C [18]: 116%
- viability, T/C [19]: 69.4%
- viability, T/C [20]: 70.8%
- viability, T/C [21]: 78.2%
- viability, T/C [22]: 91%
- viability, T/C [23]: 89.7%
- viability, T/C [24]: 65.1%
- viability, T/C [25]: 8.79%
- viability, T/C [26]: 7.92%
- viability, T/C [27]: 7.39%
- viability, T/C [28]: 10.4%
- viability, T/C [29]: 12.4%
- viability, T/C [30]: 8.5%
- viability, T/C [31]: 4.59%
- viability, T/C [32]: 4.22%
- viability, T/C [33]: 3.75%
- viability, T/C [34]: 4.24%
- viability, T/C [35]: 4.79%
- viability, T/C [36]: 3.26%

Structure (SMILES): CC1(C)CCC(Nc2ncc(C(F)(F)F)c(-c3c[nH]c4c(P(C)(C)=O)c(C#N)ccc34)n2)CN1 (stereo unspecified) + CCn1c(-c2cc(N3CCN(C)CC3)cnc2C(C)OC)c2c3cc(ccc31)-c1csc(n1)CC(NC(=O)C1CC1C)C(=O)N1CCCC(N1)C(=O)OCC(C)(C)C2
- IC50 (second compound 0.000949 µM): 2.23 nM
- IC50 (second compound 0.003 µM): 2.53 nM
- IC50 (second compound 0.00949 µM): 1.94 nM
- IC50 (second compound 0.03 µM): < 0.949 nM
- IC50 (second compound 0.0949 µM): < 0.949 nM
- IC50 (second compound 0.3 µM): < 0.949 nM
- viability, T/C (second compound 0.000949 µM, first compound 0.000949 µM): 116%
- viability, T/C (second compound 0.000949 µM, first compound 0.003 µM): 26.9%
- viability, T/C (second compound 0.000949 µM, first compound 0.00949 µM): 8.16%
- viability, T/C (second compound 0.000949 µM, first compound 0.03 µM): 6.16%
- viability, T/C (second compound 0.000949 µM, first compound 0.0949 µM): 4.71%
- viability, T/C (second compound 0.000949 µM, first compound 0.3 µM): 3.65%
- viability, T/C (second compound 0.003 µM, first compound 0.000949 µM): 112%
- viability, T/C (second compound 0.003 µM, first compound 0.003 µM): 39.4%
- viability, T/C (second compound 0.003 µM, first compound 0.00949 µM): 10.1%
- viability, T/C (second compound 0.003 µM, first compound 0.03 µM): 7.4%
- viability, T/C (second compound 0.003 µM, first compound 0.0949 µM): 5.4%
- viability, T/C (second compound 0.003 µM, first compound 0.3 µM): 4.64%
- viability, T/C (second compound 0.00949 µM, first compound 0.000949 µM): 91.8%
- viability, T/C (second compound 0.00949 µM, first compound 0.003 µM): 24.4%
- viability, T/C (second compound 0.00949 µM, first compound 0.00949 µM): 8.42%
- viability, T/C (second compound 0.00949 µM, first compound 0.03 µM): 5.44%
- viability, T/C (second compound 0.00949 µM, first compound 0.0949 µM): 5.01%
- viability, T/C (second compound 0.00949 µM, first compound 0.3 µM): 4.22%
- viability, T/C (second compound 0.03 µM, first compound 0.000949 µM): 16.8%
- viability, T/C (second compound 0.03 µM, first compound 0.003 µM): 5.53%
- viability, T/C (second compound 0.03 µM, first compound 0.00949 µM): 2.91%
- viability, T/C (second compound 0.03 µM, first compound 0.03 µM): 2.43%
- viability, T/C (second compound 0.03 µM, first compound 0.0949 µM): 1.95%
- viability, T/C (second compound 0.03 µM, first compound 0.3 µM): 1.14%
- viability, T/C (second compound 0.0949 µM, first compound 0.000949 µM): 2.94%
- viability, T/C (second compound 0.0949 µM, first compound 0.003 µM): 1.38%
- viability, T/C (second compound 0.0949 µM, first compound 0.00949 µM): 1.46%
- viability, T/C (second compound 0.0949 µM, first compound 0.03 µM): 0.67%
- viability, T/C (second compound 0.0949 µM, first compound 0.0949 µM): 0.66%
- viability, T/C (second compound 0.0949 µM, first compound 0.3 µM): 0.53%
- viability, T/C (second compound 0.3 µM, first compound 0.000949 µM): 1.65%
- viability, T/C (second compound 0.3 µM, first compound 0.003 µM): 0.63%
- viability, T/C (second compound 0.3 µM, first compound 0.00949 µM): 0.85%
- viability, T/C (second compound 0.3 µM, first compound 0.03 µM): 1.47%
- viability, T/C (second compound 0.3 µM, first compound 0.0949 µM): 0.57%
- viability, T/C (second compound 0.3 µM, first compound 0.3 µM): 0.6%

Structure (SMILES): C=CC(=O)Nc1cc(Nc2nccc(-c3cn(C)c4ccccc34)n2)c(OC)cc1N(C)CCN(C)C + CCn1c(-c2cccnc2C(C)OC)c2c3cc(ccc31)N1CCOC(CC(NC(=O)C(C(C)C)N(C)C(=O)C3(F)CCN(C(=O)C#CC(C)(C)N(C)C)CC3)C(=O)N3CCCC(N3)C(=O)OCC(C)(C)C2)C1
- IC50 (second compound 0.000949 µM): > 1000 nM
- IC50 (second compound 0.003 µM): > 1000 nM
- IC50 (second compound 0.00949 µM): > 1000 nM
- IC50 (second compound 0.03 µM): > 1000 nM
- IC50 (second compound 0.0949 µM): > 1000 nM
- IC50 (second compound 0.3 µM): > 1000 nM
- viability, T/C [1]: 105%
- viability, T/C [2]: 98.3%
- viability, T/C [3]: 110%
- viability, T/C [4]: 100%
- viability, T/C [5]: 106%
- viability, T/C [6]: 100%
- viability, T/C [7]: 101%
- viability, T/C [8]: 103%
- viability, T/C [9]: 103%
- viability, T/C [10]: 102%
- viability, T/C [11]: 106%
- viability, T/C [12]: 103%
- viability, T/C [13]: 99.2%
- viability, T/C [14]: 101%
- viability, T/C [15]: 107%
- viability, T/C [16]: 103%
- viability, T/C [17]: 107%
- viability, T/C [18]: 103%
- viability, T/C [19]: 90.5%
- viability, T/C [20]: 100%
- viability, T/C [21]: 108%
- viability, T/C [22]: 107%
- viability, T/C [23]: 110%
- viability, T/C [24]: 102%
- viability, T/C [25]: 95.6%
- viability, T/C [26]: 102%
- viability, T/C [27]: 104%
- viability, T/C [28]: 106%
- viability, T/C [29]: 107%
- viability, T/C [30]: 98.3%
- viability, T/C [31]: 99.8%
- viability, T/C [32]: 102%
- viability, T/C [33]: 103%
- viability, T/C [34]: 107%
- viability, T/C [35]: 105%
- viability, T/C [36]: 101%
